Experimental data published in ChEMBL document CHEMBL1201862, “PubChem BioAssay data set” (2004).
Calls of active or inactive are those of the source.

Tests used:
Ion channel NompC = Ion channel NompC (Danio rerio, UniProt Q7T1G6); test: Fluorescence counterscreen assay for TRPML3 agonists: dose response cell-based high-throughput screening assay to identify agonists of the transient receptor potential channel N1 (TRPN1). [Related pubchem assays: 1526, 1424, 1448 ]; type: functional
[1] = molecular target: T1, Corticotropin-releasing factor receptor 2/Corticotropin-releasing factor-binding protein (Homo sapiens, UniProt P24387+Q13324); test: activators of CRF receptor 2 with binding protein – uHTS hits, confirmation (AID 602473); type: functional; conditions: read-out: EC50_Mean
T1 sequence (Q13324 whole entry): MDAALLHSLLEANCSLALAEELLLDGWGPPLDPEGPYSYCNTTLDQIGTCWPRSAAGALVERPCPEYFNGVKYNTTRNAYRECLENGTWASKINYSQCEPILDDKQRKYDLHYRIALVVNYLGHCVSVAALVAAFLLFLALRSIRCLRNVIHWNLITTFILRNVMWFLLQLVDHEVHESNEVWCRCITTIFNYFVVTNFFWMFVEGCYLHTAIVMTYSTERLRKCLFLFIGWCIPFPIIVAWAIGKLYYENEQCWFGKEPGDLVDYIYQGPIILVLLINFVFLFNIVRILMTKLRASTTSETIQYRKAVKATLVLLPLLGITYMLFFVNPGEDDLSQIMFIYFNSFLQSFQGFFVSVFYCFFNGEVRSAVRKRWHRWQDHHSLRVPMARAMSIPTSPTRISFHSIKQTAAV
T1 sequence (P24387 whole entry): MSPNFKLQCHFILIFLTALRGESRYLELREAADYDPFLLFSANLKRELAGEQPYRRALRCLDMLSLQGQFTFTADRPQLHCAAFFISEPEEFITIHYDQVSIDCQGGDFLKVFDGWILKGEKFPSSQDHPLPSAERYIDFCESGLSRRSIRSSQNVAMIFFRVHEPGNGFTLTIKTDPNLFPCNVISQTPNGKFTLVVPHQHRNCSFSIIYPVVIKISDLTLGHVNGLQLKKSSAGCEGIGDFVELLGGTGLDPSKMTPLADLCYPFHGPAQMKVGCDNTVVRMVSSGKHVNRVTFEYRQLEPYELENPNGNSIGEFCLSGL

Mucolipin-3 = Mucolipin-3 (Homo sapiens, UniProt Q8TDD5); test: Dose response cell-based high-throughput screening assay for agonists of the transient receptor potential channel ML3 (TRPML3). [Related pubchem assays: 1526, 1424, 1448 ]; type: functional
[2] = molecular target: T2, Neuropeptide Y receptor type 1 (Homo sapiens, UniProt P25929); type: functional;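 note: HEK293 cells with a CNG channel challenged with NPY then isoproterenol; potency as antagonist that reverses NPY suppression of cAMP signal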
T2 sequence (P25929 whole entry): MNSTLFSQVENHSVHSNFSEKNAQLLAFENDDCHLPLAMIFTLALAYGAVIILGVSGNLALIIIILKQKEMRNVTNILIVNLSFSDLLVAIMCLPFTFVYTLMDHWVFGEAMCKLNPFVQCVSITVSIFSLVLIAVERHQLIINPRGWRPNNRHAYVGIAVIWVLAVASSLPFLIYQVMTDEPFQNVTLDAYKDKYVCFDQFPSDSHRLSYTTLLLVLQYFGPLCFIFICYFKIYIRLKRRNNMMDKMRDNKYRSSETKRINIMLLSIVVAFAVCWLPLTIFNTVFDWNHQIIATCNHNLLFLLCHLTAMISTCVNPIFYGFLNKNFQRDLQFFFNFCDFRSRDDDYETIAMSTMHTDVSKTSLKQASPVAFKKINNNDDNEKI

[3] = molecular target: T3, Neuropeptide Y receptor type 2 (Homo sapiens, UniProt P49146); type: functional, cell-based;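 note: HEK293 cells expressing the receptor and a CNG channel; stimulus was NPY near EC95 followed by isoproterenol to raise cAMP; antagonist potency measured as restoring cAMP signal that NPY suppresses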
T3 sequence (P49146 whole entry): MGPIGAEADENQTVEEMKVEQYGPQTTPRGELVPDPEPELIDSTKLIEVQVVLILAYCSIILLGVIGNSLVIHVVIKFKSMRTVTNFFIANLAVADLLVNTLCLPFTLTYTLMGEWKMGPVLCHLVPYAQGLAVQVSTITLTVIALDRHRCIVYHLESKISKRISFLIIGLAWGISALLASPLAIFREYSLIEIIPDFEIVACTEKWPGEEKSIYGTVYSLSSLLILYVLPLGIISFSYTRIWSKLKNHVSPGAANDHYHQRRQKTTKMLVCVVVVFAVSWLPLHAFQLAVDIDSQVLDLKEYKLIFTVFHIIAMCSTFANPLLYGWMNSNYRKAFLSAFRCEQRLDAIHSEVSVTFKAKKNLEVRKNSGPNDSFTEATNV

HeLa = test: Cytotoxicity counterscreen assay for transcriptional activators of heat shock protein 70 (Hsp70). [Related pubchem assays: 1203, 1252 ]; type: functional; conditions: Homo sapiens;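 note: cells exposed to compound for 16 hours before readout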
[4] = molecular target: Induced myeloid leukemia cell differentiation protein Mcl-1 (Homo sapiens, UniProt Q07820); type: functional
[5] = molecular target: Photoreceptor-specific nuclear receptor (Homo sapiens, UniProt Q9Y5X4); type: functional, cell-based;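 note: CHO-S cells with Gal4-NCOR and VP16-NR2E3 two-hybrid luciferase reporter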
Protein RecA = molecular target: T4, Protein RecA (Mycobacterium tuberculosis, UniProt P9WHJ3); test: Fluorescence Cell-Free Homogeneous Dose Retest to Identify Inhibitors of RecA-Intein Splicing Activity. [Related pubchem assays (depositor defined):AID2097, AID2223, AID489010, AID492950]; type: functional
T4 sequence (P9WHJ3 whole entry): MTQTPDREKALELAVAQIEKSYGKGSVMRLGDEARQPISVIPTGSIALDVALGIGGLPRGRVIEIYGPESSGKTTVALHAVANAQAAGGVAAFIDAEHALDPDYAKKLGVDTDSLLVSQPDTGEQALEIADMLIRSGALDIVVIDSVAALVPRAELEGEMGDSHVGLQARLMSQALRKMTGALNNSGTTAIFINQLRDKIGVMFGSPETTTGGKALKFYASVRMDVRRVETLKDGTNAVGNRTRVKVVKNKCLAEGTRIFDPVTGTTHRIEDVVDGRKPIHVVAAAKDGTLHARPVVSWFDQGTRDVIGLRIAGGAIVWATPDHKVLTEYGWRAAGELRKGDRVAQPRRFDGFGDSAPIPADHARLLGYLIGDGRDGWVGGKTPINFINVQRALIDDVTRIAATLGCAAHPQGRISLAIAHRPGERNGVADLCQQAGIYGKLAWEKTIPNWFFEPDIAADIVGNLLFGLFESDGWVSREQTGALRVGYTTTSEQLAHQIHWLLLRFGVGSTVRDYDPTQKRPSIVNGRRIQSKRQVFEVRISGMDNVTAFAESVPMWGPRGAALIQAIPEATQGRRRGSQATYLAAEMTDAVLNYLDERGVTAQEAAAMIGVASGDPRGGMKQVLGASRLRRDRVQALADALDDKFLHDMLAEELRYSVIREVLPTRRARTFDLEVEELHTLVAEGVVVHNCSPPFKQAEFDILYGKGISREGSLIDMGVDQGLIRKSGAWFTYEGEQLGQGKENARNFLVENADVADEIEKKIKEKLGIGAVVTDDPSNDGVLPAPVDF

[6] = molecular target: Sphingosine 1-phosphate receptor 2 (Homo sapiens, UniProt O95136); test: Dose Response Cell Based Assay for Antagonists of the S1P2 Receptor. [Related pubchem assays: 856, 736 ]; type: functional
[7] = molecular target: T5, Replicative DNA helicase DnaB (Mycobacterium tuberculosis, UniProt P9WMR3); test: DnaB intein splicing inhibitors, dose response, biochemical, cell-free fluorescence (AID 449749); type: functional
T5 sequence (P9WMR3 whole entry): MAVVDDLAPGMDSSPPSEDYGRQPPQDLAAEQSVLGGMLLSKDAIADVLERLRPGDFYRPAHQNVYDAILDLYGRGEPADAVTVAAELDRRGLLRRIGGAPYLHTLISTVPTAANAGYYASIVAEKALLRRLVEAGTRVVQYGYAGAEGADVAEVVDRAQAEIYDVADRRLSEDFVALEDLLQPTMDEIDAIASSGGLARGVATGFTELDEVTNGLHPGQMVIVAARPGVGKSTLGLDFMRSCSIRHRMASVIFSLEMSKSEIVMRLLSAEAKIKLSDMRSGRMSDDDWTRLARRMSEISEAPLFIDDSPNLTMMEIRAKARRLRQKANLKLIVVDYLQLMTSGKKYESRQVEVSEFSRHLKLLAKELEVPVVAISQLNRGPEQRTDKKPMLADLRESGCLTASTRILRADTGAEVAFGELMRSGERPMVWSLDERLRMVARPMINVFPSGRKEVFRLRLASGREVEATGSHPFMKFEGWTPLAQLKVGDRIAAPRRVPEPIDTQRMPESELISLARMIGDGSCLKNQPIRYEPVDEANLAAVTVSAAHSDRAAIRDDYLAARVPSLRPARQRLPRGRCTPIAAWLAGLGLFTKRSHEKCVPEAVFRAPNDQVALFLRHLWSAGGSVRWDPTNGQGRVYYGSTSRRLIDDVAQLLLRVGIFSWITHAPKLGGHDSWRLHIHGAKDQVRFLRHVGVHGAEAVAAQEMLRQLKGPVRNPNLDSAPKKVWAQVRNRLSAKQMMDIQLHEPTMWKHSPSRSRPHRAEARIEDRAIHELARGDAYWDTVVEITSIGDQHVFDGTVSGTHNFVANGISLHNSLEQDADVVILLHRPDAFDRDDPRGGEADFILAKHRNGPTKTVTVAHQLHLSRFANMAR

[8] = inhibitors of PGC1a acetylation in cells, dose response, cell-based, cherry-picked samples (AID 720514); type: functional;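 note: potency may reflect raised or lowered acetylation signal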
[9] = molecular target: T6, Sphingosine 1-phosphate receptor 4 (Homo sapiens, UniProt O95977); test: Late stage fluorescence dose response cell-based screening assay for antagonists of the Sphingosine 1-Phosphate Receptor 4 (S1P4). [Related pubchem assays: 1524 (Confirmation screen (S1P4 antagonists).), 1510 (Primary screen (S1P4 antagonists).), 1853 (Summary AID (S1P4 antagonists).), 1692 (Dose response screen (S1P4 antagonists).)]; type: functional
T6 sequence (O95977 whole entry): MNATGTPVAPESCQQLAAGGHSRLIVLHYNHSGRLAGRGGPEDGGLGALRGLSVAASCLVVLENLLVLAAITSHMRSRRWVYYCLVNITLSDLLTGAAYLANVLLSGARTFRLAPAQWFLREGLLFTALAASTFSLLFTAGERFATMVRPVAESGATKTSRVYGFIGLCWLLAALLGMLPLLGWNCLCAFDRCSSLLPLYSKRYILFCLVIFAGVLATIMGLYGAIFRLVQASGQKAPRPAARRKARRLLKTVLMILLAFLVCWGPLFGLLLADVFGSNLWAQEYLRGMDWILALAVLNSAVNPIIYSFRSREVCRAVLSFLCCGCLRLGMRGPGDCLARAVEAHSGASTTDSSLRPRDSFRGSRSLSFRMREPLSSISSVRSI

[10] = molecular target: T6, Sphingosine 1-phosphate receptor 4; test: Fluorescence dose response cell-based high throughput screening assay for antagonists of the Sphingosine 1-Phosphate Receptor 4 (S1P4). [Related pubchem assays: 1524 (Confirmation in triplicates.), 1510 (Primary screen.)]; type: functional
[11] = molecular target: Sphingosine 1-phosphate receptor 1 (Homo sapiens, UniProt P21453); type: functional;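 note: Tango beta-arrestin reporter U2OS cells stimulated with S1P near its EC80; inhibitor potency meaning antagonism of receptor activation by the natural agonist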
[12] = molecular target: T7, Sentrin-specific protease 1 (Homo sapiens, UniProt Q9P0U3); test: Dose response confirmation of small molecule inhibitors of the catalytic domain of the SUMO protease, SENP1 in a FRET assay.; type: functional; conditions: read-out: IC50_Mean
T7 sequence (Q9P0U3 whole entry): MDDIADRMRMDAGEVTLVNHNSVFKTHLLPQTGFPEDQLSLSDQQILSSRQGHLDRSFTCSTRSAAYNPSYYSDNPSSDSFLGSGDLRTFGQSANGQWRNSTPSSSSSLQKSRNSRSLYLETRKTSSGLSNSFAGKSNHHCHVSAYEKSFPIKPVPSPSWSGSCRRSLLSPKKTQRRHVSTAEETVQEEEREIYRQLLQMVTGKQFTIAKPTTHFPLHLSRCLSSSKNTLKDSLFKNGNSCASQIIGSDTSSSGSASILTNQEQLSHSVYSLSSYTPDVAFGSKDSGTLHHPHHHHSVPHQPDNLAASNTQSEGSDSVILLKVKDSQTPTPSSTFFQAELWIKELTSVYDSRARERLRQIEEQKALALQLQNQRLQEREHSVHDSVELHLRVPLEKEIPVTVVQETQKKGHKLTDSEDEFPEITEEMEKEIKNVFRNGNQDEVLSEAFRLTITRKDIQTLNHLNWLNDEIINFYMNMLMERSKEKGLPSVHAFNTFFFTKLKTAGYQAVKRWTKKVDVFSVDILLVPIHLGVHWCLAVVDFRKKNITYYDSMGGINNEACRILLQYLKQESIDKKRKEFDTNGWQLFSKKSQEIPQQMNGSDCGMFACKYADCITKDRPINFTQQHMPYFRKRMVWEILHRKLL

[13] = inhibitors of Bluetongue virus cytopathic effect, confirmation, arbovirus, BSR cells (AID 1250); type: functional;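 note: protection from viral cytopathic effect measured as cell viability by ATP luminescence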
[14] = molecular target: T1, Corticotropin-releasing factor receptor 2/Corticotropin-releasing factor-binding protein; test: Dose Response confirmation of uHTS hits for small molecule antagonists of the CRF-binding protein and CRF-R2 receptor complex.; type: functional; conditions: read-out: IC50_Mean
[15] = molecular target: T7, Sentrin-specific protease 1; test: potency of human SENP1 inhibitors, dose response, biochemical, kinetic FRET (AID 651697); type: functional; conditions: read-out: IC50_Mean

Induced myeloid leukemia cell differentiation protein Mcl-1, sequence (Q07820 whole entry, the tested form may be a part): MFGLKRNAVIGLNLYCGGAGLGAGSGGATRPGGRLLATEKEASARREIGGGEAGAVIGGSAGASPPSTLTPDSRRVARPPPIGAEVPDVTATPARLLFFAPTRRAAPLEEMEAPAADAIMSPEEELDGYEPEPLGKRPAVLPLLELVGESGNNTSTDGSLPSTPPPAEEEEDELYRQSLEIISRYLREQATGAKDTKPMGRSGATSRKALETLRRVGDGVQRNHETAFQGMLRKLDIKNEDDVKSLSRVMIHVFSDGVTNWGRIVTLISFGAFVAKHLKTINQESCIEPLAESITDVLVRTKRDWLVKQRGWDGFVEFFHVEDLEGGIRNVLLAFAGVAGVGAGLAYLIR
Ion channel NompC, sequence (Q7T1G6 whole entry): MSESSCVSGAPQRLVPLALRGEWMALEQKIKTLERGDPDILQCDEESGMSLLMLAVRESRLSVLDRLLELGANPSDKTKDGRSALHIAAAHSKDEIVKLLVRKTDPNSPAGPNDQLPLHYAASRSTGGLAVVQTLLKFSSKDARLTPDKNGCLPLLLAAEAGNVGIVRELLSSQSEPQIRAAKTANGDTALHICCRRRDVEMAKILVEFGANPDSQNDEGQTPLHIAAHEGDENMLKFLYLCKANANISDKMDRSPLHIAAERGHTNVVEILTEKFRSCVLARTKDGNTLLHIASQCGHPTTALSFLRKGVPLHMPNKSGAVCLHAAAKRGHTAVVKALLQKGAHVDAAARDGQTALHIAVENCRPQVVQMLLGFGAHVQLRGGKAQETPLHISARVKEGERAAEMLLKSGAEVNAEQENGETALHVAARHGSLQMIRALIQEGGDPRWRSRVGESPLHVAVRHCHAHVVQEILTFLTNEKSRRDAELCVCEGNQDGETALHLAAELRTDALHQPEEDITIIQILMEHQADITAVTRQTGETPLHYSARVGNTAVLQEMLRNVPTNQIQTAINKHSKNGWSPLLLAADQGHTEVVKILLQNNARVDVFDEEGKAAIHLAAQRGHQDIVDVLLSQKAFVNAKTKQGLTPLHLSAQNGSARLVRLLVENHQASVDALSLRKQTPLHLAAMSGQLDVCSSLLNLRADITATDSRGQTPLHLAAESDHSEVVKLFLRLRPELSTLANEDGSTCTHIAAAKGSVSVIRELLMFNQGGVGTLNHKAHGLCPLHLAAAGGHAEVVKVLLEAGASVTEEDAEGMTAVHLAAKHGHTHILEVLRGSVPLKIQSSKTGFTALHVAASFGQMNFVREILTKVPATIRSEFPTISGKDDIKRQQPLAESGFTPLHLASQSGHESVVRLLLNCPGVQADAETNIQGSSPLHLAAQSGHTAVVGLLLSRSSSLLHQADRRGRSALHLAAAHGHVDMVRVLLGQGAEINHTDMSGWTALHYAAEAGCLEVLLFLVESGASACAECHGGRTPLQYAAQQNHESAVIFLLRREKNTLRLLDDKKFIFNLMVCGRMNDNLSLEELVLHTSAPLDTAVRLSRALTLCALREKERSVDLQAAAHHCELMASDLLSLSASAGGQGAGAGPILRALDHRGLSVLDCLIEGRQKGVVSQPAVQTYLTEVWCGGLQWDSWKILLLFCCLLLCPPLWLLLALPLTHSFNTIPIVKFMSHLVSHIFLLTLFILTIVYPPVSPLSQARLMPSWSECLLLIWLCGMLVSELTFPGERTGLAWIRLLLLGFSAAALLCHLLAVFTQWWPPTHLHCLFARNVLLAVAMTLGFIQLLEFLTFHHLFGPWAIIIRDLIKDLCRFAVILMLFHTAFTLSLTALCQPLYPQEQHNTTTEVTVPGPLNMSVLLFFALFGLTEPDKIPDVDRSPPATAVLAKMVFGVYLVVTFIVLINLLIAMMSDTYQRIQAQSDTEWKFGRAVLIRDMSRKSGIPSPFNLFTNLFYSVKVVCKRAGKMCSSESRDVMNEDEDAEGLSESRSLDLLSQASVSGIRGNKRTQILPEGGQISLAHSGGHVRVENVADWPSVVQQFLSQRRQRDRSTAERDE
Photoreceptor-specific nuclear receptor, sequence (Q9Y5X4 whole entry, the tested form may be a part): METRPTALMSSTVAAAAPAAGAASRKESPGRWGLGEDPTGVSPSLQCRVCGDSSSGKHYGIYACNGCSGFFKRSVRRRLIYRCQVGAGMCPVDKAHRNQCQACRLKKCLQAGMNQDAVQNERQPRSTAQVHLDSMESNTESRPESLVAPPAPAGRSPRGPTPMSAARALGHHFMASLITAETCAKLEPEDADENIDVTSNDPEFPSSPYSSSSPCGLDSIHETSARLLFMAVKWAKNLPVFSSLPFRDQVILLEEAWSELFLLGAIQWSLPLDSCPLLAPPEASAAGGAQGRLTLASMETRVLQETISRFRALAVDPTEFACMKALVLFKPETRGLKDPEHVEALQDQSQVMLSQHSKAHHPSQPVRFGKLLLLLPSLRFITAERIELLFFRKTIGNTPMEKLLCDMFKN
Mucolipin-3, sequence (Q8TDD5 whole entry): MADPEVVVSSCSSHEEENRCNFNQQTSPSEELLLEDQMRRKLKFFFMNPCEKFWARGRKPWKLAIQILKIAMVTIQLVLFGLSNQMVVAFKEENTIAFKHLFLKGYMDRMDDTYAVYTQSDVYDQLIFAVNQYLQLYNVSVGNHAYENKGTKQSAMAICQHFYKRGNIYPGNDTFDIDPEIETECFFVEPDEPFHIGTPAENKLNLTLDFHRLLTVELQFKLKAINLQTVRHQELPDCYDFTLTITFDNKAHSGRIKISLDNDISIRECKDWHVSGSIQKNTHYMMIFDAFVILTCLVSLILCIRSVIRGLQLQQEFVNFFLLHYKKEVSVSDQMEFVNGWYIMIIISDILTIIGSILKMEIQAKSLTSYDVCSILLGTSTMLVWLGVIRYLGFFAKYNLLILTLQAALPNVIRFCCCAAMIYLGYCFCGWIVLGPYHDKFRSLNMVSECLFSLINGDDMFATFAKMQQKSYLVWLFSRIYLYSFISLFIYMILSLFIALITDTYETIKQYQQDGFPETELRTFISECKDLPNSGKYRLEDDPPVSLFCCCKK
Sphingosine 1-phosphate receptor 2, sequence (O95136 whole entry): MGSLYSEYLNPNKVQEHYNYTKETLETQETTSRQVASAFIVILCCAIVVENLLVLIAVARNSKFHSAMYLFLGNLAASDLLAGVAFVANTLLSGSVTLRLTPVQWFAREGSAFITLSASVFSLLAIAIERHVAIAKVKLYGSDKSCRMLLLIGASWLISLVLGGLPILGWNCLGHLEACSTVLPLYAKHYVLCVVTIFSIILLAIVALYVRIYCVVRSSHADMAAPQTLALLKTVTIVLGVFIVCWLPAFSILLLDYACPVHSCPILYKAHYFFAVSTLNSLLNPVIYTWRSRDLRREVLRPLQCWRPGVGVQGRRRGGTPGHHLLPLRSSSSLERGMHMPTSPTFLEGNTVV
Sphingosine 1-phosphate receptor 1, sequence (P21453 whole entry, the tested form may be a part): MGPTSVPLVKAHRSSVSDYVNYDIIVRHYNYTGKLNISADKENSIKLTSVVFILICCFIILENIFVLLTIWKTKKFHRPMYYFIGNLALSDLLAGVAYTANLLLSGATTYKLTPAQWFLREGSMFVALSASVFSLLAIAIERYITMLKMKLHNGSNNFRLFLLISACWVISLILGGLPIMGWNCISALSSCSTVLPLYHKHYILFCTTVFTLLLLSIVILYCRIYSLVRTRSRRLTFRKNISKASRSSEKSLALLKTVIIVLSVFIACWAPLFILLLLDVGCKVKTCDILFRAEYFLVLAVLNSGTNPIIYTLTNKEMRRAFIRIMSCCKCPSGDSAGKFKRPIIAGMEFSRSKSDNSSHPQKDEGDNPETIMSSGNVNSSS

Cc1cc(C)cc(N2C(=O)CSC2c2cccs2)c1 (stereo unspecified)
EC50 (Ion channel NompC): > 29.9 µM (not active)
EC50 [1]: > 53 µM (inactive)
EC50 (Mucolipin-3): > 29.9 µM (not active)

COc1ccc(-c2nnc3sc(C(C)N4C(=O)c5ccccc5C4=O)nn23)cc1 (stereo unspecified)
IC50 [2]: 9.35 µM (active)
IC50 [3]: 6.02 µM (active)

COC(=O)Nc1ccc(S(=O)(=O)NCc2ccccn2)cc1
CC50 (HeLa): > 99 µM (not active)
IC50 [4]: 6.18 µM (not active)

COc1ccc(NC(=O)/C(Cl)=C(/Cl)S(=O)(=O)Cc2ccccc2)cn1
IC50 [5]: 1.15 µM (active)
EC50 (Protein RecA): 2.79 µM (active)
IC50 [6]: 1.76 µM (active)
AC50 [7]: 2.44 µM (active)
AC50 [8]: 5.17 µM (active)
IC50 [9]: 5.28 µM (not active)
IC50 [10]: 0.829 µM (active)
IC50 [11]: 8.15 µM (active)

COc1ccccc1C1C2=C(N=c3s/c(=C/c4cccc(OCC(=O)O)c4)c(=O)n31)c1ccccc1CC2 (stereo unspecified)
IC50 [12]: 25.4 µM (inactive)
IC50 [13]: 21.3 µM (active)
EC50 [1]: > 53 µM (inactive)
IC50 [14]: > 47.1 µM (inactive)
IC50 [4]: 2.51 µM (active)
IC50 [15]: 18.9 µM (active)
